This is an account of results in ChEMBL document CHEMBL5137082, “Discovery of a Novel Vascular Disrupting Agent Inhibiting Tubulin Polymerization and HDACs with Potent Antitumor Effects” (J Med Chem, 2022).

One series deals with HCT-116. Kind of series: Antiproliferative activity against human HCT-116 cells assessed as inhibition of cell growth measured after 72 hrs by MTT assay. Particulars: HCT-116, 72 h. In kind it is functional, cell-based. Background: Tetrazolium assays rely on reduction of a dye to a coloured formazan, in cell work by metabolically active cells.
Series [1] has as its system HepG2. The experiment in a line: Induction of morphological changes in human HepG2 cells assessed as nuclear fragmentation at 7.5 to 30 nM after 48 hrs by Hoechst 33258 staining based fluorescence microscopic analysis. In kind it is functional, cell-based. As to conditions: dose 7.5-30 nM.
The next series concerns MDA-MB-231. Kind of series: Antiproliferative activity against human MDA-MB-231 cells assessed as inhibition of cell growth measured after 72 hrs by MTT assay. Particulars: MDA-MB-231, 72 h. In kind it is functional, cell-based.
Series [2] concerns HepG2. Kind of series: Induction of apoptosis in human HepG2 cells assessed as necrotic cells at 7.5 nM incubated for 48 hrs by Annexin-V/PI-staining based flow cytometry (reference value: 1.43 +/- 0.26%). In kind it is functional. In general terms: Flow cytometry measures light scatter and fluorescence of single cells or particles in a stream.
The next series relates to H22. The experiment in a line: Antiproliferative activity against mouse H22 cells assessed as inhibition of cell growth measured after 72 hrs by MTT assay. In kind it is functional, cell-based. As to conditions: H22, 72 h.
In series [3] the test system is HepG2. Kind of series: Induction of morphological changes in human HepG2 cells assessed as chromatin aggregation at 7.5 to 30 nM after 48 hrs by Hoechst 33258 staining based fluorescence microscopic analysis. In kind it is functional, cell-based. As to conditions: dose 7.5-30 nM.
Series [4] deals with HepG2. Kind of series: Induction of cell cycle arrest in human HepG2 cells assessed as accumulation G1 phase at 30 nM incubated for 48 hrs by propidium iodide staining based flow cytometry analysis (reference value: 59.32 +/- 0.77%). The format is functional.
The next series has as its system PC-3. Kind of series: Induction of apoptosis in human PC-3 cells assessed as mitochondrial membrane potential loss by measuring decrease in […] fluorescence at 7.5 nM incubated for 48 hrs by JC1 staining based flow cytometry analysis (reference value: 93.48 +/- 0.15%). The format is functional. More on the design: scale not given: the % may be the effect or the level left.

In a further series the test system is MCF7. The experiment in a line: Antiproliferative activity against human MCF7 cells assessed as inhibition of cell growth measured after 72 hrs by MTT assay. The format is functional, cell-based. As to conditions: MCF7, 72 h.
Series [5] relates to HepG2. Kind of series: Induction of apoptosis in human HepG2 cells assessed as necrotic cells at 30 nM incubated for 48 hrs by Annexin-V/PI-staining based flow cytometry (reference value: 1.43 +/- 0.26%). In kind it is functional.
A further series has as its target Histone deacetylase 1 (Homo sapiens, UniProt Q13547). Kind of series: Inhibition of HDAC1 in human HeLa cells using BOC-K(Ac)-AMC as substrate measured after 30 mins by fluorescence based microtiter plate reader assay. The format is cell-based.
Series [6] can be described thus: Cardiotoxicity in ICR mouse allografted with mouse H22 cells assessed as effect on P wave at 20 mg/kg, iv administered qd measured after 21 days by ECG analysis. Particulars: in vivo, 504 h, time 21 day. The format is toxicity, organism-based.
The target of another series is T1, Histone deacetylase 8 (Homo sapiens, UniProt Q9BY41).
T1 sequence (Q9BY41 whole entry): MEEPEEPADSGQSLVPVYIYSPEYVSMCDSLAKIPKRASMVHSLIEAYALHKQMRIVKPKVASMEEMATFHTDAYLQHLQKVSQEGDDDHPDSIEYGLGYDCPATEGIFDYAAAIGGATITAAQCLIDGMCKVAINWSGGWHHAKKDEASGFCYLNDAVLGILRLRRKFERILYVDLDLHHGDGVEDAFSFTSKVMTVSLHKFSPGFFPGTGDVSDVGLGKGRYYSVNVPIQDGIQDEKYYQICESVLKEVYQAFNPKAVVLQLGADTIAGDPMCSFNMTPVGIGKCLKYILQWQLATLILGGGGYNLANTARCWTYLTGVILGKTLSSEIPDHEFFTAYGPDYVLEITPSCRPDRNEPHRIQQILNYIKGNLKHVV
The experiment in a line: Inhibition of HDAC8 in human HeLa cells using BOC-K(Ac)-AMC as substrate measured after 30 mins by fluorescence based microtiter plate reader assay. The format is cell-based.

The next series has as its target Histone deacetylase 2 (Homo sapiens, UniProt Q92769). The experiment in a line: Inhibition of HDAC2 in human HeLa cells using BOC-K(Ac)-AMC as substrate measured after 30 mins by fluorescence based microtiter plate reader assay. In kind it is cell-based.
Series [7] relates to HepG2. Kind of series: Induction of apoptosis in human HepG2 cells assessed as viable cells at 7.5 nM incubated for 48 hrs by Annexin-V/PI-staining based flow cytometry (reference value: 91.44 +/- 0.74%). The format is functional. Particulars: read-out: Activity.
Series [8] is described as follows: Metabolic stability in mouse liver microsomes assessed as intrinsic clearance at 1 uM in presence of NADPH measured per gram protein up to 60 mins by LC-MS/MS analysis. As to conditions: 1 h. The format is ADME, Microsome. On the technique in general: Liver microsomes are vesicles of endoplasmic reticulum, rich in cytochrome P450 enzymes.
A short description of series [9]: Metabolic stability in mouse plasma assessed as compound remaining at 40 uM measured after 1 hrs by LC-MS/MS analysis (reference value: 100%). In kind it is ADME, cell-free.
Series [10] relates to HepG2. Kind of series: Induction of cell cycle arrest in human HepG2 cells assessed as accumulation S phase at 30 nM incubated for 48 hrs by propidium iodide staining based flow cytometry analysis (reference value: 17.14 +/- 0.34%). In kind it is functional.
Series [11] is described as follows: Toxicity in ICR mouse allografted with mouse H22 cells assessed as pathological changes in spleen at 20 mg/kg, iv administered qd measured after 21 days by H and E staining based analysis. In kind it is organism-based. Particulars: in vivo, 504 h, time 21 day.
In another series the test system is HUVEC. The experiment in a line: Antimigratory activity against HUVEC cells assessed as suppression of migration measured after 24 hrs by Wound healing assay. The format is functional, cell-based. Particulars: Homo sapiens, dose 7.5-30 nM, DDE = dose-dependent effect.
Series [12] in a line: Toxicity in ICR mouse allografted with mouse H22 cells assessed as diastolic blood pressure at 20 mg/kg, iv administered qd measured after 21 days. The format is organism-based. Particulars: in vivo, 504 h, time 21 day.

Activity calls are given as the source filed them. The rule behind the calls is not given here.

Histone deacetylase 2, sequence (Q92769 whole entry): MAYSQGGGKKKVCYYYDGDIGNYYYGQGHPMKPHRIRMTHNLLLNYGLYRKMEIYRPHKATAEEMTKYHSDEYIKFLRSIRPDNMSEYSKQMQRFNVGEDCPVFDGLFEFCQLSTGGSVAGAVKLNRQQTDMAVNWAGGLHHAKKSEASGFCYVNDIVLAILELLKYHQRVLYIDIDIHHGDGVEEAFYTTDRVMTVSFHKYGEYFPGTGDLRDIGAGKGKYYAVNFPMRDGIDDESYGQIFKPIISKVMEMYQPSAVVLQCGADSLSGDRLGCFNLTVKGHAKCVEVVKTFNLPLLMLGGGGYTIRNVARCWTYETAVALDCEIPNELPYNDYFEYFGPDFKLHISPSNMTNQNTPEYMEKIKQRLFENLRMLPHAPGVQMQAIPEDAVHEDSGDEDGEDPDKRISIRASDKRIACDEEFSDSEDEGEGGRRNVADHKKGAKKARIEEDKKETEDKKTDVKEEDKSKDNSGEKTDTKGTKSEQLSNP
Histone deacetylase 1, sequence (Q13547 whole entry): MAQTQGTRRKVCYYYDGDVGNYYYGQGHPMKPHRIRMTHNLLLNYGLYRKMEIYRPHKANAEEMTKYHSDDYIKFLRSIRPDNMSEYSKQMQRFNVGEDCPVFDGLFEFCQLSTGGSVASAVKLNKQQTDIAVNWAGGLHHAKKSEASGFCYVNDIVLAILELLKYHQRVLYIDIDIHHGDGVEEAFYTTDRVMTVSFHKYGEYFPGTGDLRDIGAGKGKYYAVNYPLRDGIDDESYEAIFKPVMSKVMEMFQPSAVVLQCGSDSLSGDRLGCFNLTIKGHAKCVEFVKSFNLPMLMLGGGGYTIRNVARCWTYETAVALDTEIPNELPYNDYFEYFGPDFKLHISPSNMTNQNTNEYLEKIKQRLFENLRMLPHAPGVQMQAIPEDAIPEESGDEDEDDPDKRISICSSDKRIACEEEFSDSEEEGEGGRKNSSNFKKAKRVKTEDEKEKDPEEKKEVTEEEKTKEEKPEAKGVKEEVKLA

For `COc1ccc(CNC(=O)c2cc(F)ccc2N2CCOCC2)cc1/C=C/C(=O)NO`, the IC50 is 28 nM in the series on HCT-116; 30 nM with MDA-MB-231; 26 nM in the series on H22; 27 nM with MCF7; 115 nM against Histone deacetylase 1; 2120 nM at Histone deacetylase 8. This compound returned an IC50 against Histone deacetylase 2 of 135 nM. Besides, the outcome in the series on HepG2 [1] and with HepG2 [3] was Active. The Activity in the series with HepG2 [2] is recorded as 1.33%; with HepG2 [4], 43.33%; with PC-3, 76.73%; with HepG2 [5], 2.85%; in series [6], “Non-Toxic”; with HepG2 [10] it was 23.58%. Further, the Activity result is “Non-Toxic” in series [11], “Dde” with HUVEC and “Non-Toxic” in series [12]. Also, the viability at 0.0075 µM in the series on HepG2 [7] is 71.6%. Further, the CLH in series [8] was determined as 41.7 mL/min/g. The Stability in series [9] came out at 45.6%.

One may read the IC50 as the concentration that inhibits the measured activity by half.
